Our source for the Activity values is ChEMBL document CHEMBL1250451, “Mechanistic insights into a Ca2+-dependent family of alpha-mannosidases in a human gut symbiont” (Nat Chem Biol, 2010).

The structures appear in SMILES notation.

What all share (assay type): protein assay
Experiment [1] concerns the target T1, Alpha-1,2-mannosidase (BT_2199) (Bacteroides thetaiotaomicron) (UniProt Q8A5N9).
T1 sequence (whole entry): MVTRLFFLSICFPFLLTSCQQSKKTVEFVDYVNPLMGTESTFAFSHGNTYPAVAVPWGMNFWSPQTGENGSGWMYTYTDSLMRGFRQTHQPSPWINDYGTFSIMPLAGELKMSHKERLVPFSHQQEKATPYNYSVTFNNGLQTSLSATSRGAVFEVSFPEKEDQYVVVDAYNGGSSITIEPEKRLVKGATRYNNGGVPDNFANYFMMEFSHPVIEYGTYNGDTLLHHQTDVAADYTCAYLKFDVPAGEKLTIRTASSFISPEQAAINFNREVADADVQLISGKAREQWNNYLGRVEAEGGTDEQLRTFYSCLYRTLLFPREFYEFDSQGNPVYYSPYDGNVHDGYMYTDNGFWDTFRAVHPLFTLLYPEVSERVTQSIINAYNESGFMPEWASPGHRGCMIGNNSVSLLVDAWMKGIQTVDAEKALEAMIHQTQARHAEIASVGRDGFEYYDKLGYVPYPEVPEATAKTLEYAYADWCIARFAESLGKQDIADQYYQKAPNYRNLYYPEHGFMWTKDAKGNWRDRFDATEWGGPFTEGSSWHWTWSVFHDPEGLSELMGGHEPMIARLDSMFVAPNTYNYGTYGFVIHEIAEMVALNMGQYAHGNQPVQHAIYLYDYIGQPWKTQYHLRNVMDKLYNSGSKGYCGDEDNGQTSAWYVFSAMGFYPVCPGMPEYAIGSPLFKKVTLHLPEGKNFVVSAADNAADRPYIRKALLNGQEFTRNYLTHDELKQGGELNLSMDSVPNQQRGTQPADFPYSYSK
Nature of the experiment: Activity of Bacteroides thetaiotaomicron GH92 alpha-mannosidase 2199 assessed as recovery of enzyme activity at 1 mM in presence of 7 mM Mg(2+) ions and in presence of 5 mM EGTA in 100 mM pH 7 MOPS buffer relative to enzyme activity in presence of calcium.

Experiment [2] has as its target T2, Alpha-1,2-mannosidase (BT_3990) (Bacteroides thetaiotaomicron) (UniProt Q8A0N1).
T2 sequence (whole entry): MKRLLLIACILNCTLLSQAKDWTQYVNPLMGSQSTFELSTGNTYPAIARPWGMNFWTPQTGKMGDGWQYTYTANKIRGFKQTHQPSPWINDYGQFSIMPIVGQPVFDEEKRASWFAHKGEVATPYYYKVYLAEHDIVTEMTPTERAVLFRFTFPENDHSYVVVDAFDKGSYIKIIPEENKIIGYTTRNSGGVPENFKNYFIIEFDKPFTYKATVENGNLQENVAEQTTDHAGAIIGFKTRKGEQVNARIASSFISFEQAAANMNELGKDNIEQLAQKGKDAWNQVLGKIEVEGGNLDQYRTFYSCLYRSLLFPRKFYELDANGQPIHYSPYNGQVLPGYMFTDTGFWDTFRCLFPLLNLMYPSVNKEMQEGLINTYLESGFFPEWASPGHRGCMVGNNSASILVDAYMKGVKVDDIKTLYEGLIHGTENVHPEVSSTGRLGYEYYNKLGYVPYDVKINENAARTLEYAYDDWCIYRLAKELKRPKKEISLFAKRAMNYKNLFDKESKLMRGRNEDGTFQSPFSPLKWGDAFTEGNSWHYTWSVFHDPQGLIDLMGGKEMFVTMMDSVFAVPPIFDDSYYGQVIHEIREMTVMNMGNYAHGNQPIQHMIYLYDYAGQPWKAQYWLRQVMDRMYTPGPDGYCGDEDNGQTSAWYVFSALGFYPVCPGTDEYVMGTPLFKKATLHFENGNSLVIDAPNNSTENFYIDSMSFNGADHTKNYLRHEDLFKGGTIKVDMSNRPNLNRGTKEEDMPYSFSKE
Nature of the experiment: Activity of Bacteroides thetaiotaomicron GH92 alpha-mannosidase 3990 assessed as recovery of enzyme activity at 1 mM in presence of 7 mM Ba(2+) ions and in presence of 5 mM EGTA in 100 mM pH 7 MOPS buffer relative to enzyme activity in presence of calcium.

Experiment [3] addresses T1, Alpha-1,2-mannosidase (BT_2199) (Bacteroides thetaiotaomicron). The experiment is described as follows: Activity of Bacteroides thetaiotaomicron GH92 alpha-mannosidase 2199 assessed as recovery of enzyme activity at 1 mM in presence of 7 mM Sr(2+) ions and in presence of 5 mM EGTA in 100 mM pH 7 MOPS buffer relative to enzyme activity in presence of calcium.
Experiment [4] has the same target. The experiment is described as follows: Activity of Bacteroides thetaiotaomicron GH92 alpha-mannosidase 2199 assessed as recovery of enzyme activity at 1 mM in absence of metal and in presence of 5 mM EGTA in 100 mM pH 7 MOPS buffer relative to enzyme activity in presence of calcium.
Experiment [5] shares this target. The experiment is described as follows: Activity of Bacteroides thetaiotaomicron GH92 alpha-mannosidase 2199 assessed as recovery of enzyme activity at 1 mM in presence of 7 mM Mn(2+) ions and in presence of 5 mM EDTA in 100 mM pH 7 MOPS buffer relative to enzyme activity in presence of calcium.
Experiment [6] deals with T2, Alpha-1,2-mannosidase (BT_3990) (Bacteroides thetaiotaomicron). Nature of the experiment: Activity of Bacteroides thetaiotaomicron GH92 alpha-mannosidase 3990 assessed as recovery of enzyme activity at 1 mM in presence of 7 mM Mn(2+) ions and in presence of 5 mM EGTA in 100 mM pH 7 MOPS buffer relative to enzyme activity in presence of calcium.
Experiment [7] has the same target. The experiment is described as follows: Activity of Bacteroides thetaiotaomicron GH92 alpha-mannosidase 3990 assessed as recovery of enzyme activity at 1 mM in presence of 7 mM Co(2+) ions and in presence of 5 mM EDTA in 100 mM pH 7 MOPS buffer relative to enzyme activity in presence of calcium.
Experiment [8] shares this target. Nature of the experiment: Activity of Bacteroides thetaiotaomicron GH92 alpha-mannosidase 3990 assessed as recovery of enzyme activity at 1 mM in presence of 7 mM Ti(3+) ions and in presence of 5 mM EGTA in 100 mM pH 7 MOPS buffer relative to enzyme activity in presence of calcium.
Experiment [9] addresses T1, Alpha-1,2-mannosidase (BT_2199) (Bacteroides thetaiotaomicron). The experiment is described as follows: Activity of Bacteroides thetaiotaomicron GH92 alpha-mannosidase 2199 assessed as recovery of enzyme activity at 1 mM in presence of 7 mM V(3+) ions and in presence of 5 mM EDTA in 100 mM pH 7 MOPS buffer relative to enzyme activity in presence of calcium.
Experiment [10] deals with T2, Alpha-1,2-mannosidase (BT_3990) (Bacteroides thetaiotaomicron). The experiment is described as follows: Activity of Bacteroides thetaiotaomicron GH92 alpha-mannosidase 3990 assessed as recovery of enzyme activity at 1 mM in presence of 7 mM Zn(2+) ions and in presence of 5 mM EDTA in 100 mM pH 7 MOPS buffer relative to enzyme activity in presence of calcium.
Experiment [11] has the same target. Nature of the experiment: Activity of Bacteroides thetaiotaomicron GH92 alpha-mannosidase 3990 assessed as recovery of enzyme activity at 1 mM in presence of 7 mM V(3+) ions and in presence of 5 mM EDTA in 100 mM pH 7 MOPS buffer relative to enzyme activity in presence of calcium.
The target in experiment [12] is T1, Alpha-1,2-mannosidase (BT_2199) (Bacteroides thetaiotaomicron). Nature of the experiment: Activity of Bacteroides thetaiotaomicron GH92 alpha-mannosidase 2199 assessed as recovery of enzyme activity at 1 mM in presence of 7 mM Ti(3+) ions and in presence of 5 mM EDTA in 100 mM pH 7 MOPS buffer relative to enzyme activity in presence of calcium.

For the compound `O=[N+]([O-])c1ccc(O[C@H]2O[C@H](CO)[C@@H](O)[C@H](O)[C@@H]2O)cc1`, the Activity was 0% in [1]; 0% in experiment [2]; 30% in experiment [3]; 0% in [4]; 8% in experiment [5]; 6% in experiment [6]. The Activity in experiment [7] worked out at 12%; in experiment [8], 0%; in experiment [9], 0%; in experiment [10], 0%; in experiment [11] it was 0%; in experiment [12] it was 0%.
